Test results published in publication PMC10175918 (Communications Biology, 2023).
Read-outs that look alike come from different tables or passages of the source.

Assays:
Assay in all cases: TGFα-shedding assay-based GPCR screening with chimeric Gα subunit proteins
Assay type in all cases: cell-based
348 GPCRs [1] = target: T1, 348 GPCRs (Homo sapiens, UniProt P50052); conditions: 10µM, Favipiravir 100μM
T1 construct: expressed in transfected cells; host or cells: HEK293A
T1 sequence (P50052 1-363): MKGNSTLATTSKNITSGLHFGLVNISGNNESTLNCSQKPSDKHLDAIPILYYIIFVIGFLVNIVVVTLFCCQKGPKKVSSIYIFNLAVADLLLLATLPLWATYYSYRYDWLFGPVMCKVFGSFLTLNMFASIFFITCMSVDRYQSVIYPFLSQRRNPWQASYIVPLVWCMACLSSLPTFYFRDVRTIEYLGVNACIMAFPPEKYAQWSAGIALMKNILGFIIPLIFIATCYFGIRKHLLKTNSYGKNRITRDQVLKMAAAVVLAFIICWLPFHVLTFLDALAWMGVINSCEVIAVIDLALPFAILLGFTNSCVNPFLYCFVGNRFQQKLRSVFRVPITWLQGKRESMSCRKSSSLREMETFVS

348 GPCRs [2] = target: T2, 348 GPCRs (Homo sapiens, UniProt P50406); conditions: 10µM, Favipiravir 100μM
T2 construct: expressed in transfected cells; host or cells: HEK293A
T2 sequence (P50406 whole entry): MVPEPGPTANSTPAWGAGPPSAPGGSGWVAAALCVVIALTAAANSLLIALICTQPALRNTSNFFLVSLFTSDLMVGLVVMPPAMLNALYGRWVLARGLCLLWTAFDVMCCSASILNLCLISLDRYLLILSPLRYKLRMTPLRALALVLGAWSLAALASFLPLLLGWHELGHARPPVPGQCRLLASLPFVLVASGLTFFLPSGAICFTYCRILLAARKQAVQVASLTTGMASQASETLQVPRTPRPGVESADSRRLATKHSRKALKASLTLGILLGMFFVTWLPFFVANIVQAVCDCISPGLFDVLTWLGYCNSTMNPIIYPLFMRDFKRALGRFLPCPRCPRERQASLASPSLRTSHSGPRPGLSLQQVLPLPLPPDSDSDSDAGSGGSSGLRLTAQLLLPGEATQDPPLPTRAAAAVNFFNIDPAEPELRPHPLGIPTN

348 GPCRs [3] = target: T3, 348 GPCRs (Homo sapiens, UniProt Q7Z601); conditions: 10µM, Favipiravir 100μM
T3 construct: expressed in transfected cells; host or cells: HEK293A
T3 sequence (Q7Z601 1-462): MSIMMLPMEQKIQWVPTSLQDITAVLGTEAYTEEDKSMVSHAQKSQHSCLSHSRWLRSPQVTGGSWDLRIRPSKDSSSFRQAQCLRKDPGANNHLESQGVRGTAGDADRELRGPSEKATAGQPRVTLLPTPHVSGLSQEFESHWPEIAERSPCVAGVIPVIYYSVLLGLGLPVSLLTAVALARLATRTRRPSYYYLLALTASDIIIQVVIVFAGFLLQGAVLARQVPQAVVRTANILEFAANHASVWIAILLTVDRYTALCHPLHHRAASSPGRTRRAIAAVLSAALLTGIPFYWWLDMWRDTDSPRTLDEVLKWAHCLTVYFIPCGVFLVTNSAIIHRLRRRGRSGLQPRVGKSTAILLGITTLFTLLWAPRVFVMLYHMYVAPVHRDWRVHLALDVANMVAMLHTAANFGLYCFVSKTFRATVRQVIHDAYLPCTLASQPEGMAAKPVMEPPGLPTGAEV

348 GPCRs [4] = target: T4, 348 GPCRs (Homo sapiens, UniProt Q96P67); conditions: 10µM, Favipiravir 100μM
T4 construct: expressed in transfected cells; host or cells: HEK293A
T4 sequence (Q96P67 whole entry): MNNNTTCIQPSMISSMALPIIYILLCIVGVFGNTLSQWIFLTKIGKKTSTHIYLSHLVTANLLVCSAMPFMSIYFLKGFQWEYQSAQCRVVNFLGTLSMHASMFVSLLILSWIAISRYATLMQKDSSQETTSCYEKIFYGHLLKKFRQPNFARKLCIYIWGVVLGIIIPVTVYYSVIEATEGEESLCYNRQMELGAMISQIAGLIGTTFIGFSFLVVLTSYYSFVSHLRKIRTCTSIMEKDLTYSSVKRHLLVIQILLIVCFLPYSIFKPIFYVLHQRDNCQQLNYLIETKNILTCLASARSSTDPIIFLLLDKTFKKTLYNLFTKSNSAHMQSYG

348 GPCRs [5] = target: 348 GPCRs (Homo sapiens, UniProt Q99500); conditions: 10µM, Favipiravir 100μM
Chain of 348 GPCRs (Homo sapiens, UniProt Q99500) (Q99500 whole entry): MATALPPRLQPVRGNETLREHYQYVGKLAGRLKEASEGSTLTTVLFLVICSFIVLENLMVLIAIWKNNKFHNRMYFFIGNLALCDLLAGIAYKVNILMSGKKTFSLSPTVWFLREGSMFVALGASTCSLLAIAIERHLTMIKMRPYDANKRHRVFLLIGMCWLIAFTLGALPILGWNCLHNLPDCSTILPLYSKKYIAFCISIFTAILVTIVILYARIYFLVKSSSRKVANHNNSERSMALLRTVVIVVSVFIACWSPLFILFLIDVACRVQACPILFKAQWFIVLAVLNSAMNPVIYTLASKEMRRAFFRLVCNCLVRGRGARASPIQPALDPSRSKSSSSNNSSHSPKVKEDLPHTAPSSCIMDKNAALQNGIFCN

348 GPCRs [6] = target: T5, 348 GPCRs (Homo sapiens, UniProt Q99788); conditions: GPCR CMKLR1 (chemerin chemokine-like receptor 1)
T5 construct: expressed in transfected cells; host or cells: HEK293A
T5 sequence (Q99788 1-373): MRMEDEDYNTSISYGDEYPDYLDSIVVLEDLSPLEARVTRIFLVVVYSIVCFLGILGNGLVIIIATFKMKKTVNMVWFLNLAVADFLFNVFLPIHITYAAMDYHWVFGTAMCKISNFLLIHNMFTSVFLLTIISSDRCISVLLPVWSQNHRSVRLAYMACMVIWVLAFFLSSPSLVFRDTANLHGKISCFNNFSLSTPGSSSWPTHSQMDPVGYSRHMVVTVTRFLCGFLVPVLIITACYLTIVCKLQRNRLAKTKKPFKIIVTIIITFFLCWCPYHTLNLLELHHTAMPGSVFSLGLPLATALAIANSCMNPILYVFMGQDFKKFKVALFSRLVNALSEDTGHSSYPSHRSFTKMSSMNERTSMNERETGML

348 GPCRs [7] = target: T6, 348 GPCRs (Homo sapiens, UniProt Q9BZJ7)
T6 construct: expressed in transfected cells; host or cells: HEK293A
T6 sequence (Q9BZJ7 whole entry): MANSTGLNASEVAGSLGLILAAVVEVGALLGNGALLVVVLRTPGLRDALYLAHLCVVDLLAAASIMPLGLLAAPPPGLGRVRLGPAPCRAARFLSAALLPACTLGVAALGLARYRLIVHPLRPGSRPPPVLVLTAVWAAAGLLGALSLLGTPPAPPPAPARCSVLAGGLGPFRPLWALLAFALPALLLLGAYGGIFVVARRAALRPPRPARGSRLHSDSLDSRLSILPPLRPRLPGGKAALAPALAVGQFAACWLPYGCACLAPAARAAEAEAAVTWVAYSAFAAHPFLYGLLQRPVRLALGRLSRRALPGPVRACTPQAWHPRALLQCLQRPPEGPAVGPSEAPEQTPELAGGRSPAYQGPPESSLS

348 GPCRs [8] = target: T7, 348 GPCRs (Homo sapiens, UniProt Q9H1Y3); conditions: 10µM, Favipiravir 100μM
T7 construct: expressed in transfected cells; host or cells: HEK293A
T7 sequence (Q9H1Y3 whole entry): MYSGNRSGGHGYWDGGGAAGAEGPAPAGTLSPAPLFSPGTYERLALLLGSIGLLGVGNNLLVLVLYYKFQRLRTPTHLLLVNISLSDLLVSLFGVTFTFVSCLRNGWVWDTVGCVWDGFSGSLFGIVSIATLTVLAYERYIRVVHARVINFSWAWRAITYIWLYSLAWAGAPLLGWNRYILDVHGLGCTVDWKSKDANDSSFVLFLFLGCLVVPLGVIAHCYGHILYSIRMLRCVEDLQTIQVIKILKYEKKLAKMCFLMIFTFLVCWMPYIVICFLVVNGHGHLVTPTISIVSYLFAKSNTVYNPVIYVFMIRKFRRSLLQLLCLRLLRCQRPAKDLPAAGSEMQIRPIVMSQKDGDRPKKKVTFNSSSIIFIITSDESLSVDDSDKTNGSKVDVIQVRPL

348 GPCRs [9] = target: T8, 348 GPCRs (Homo sapiens, UniProt Q9NS75)
T8 construct: expressed in transfected cells; host or cells: HEK293A
T8 sequence (Q9NS75 1-346): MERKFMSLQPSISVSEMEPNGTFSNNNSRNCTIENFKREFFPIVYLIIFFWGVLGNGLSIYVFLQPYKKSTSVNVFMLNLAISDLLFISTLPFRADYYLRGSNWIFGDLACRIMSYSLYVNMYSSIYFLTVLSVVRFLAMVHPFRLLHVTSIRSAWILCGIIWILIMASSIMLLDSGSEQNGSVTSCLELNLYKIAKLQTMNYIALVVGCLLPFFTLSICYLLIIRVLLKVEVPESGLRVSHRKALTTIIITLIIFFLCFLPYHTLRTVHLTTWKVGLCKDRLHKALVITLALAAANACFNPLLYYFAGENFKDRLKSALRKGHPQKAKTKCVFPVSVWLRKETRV

348 GPCRs [10] = target: T9, 348 GPCRs (Homo sapiens, UniProt Q9NZH0); conditions: 10µM, Favipiravir 100μM
T9 construct: expressed in transfected cells; host or cells: HEK293A
T9 sequence (Q9NZH0 29-403): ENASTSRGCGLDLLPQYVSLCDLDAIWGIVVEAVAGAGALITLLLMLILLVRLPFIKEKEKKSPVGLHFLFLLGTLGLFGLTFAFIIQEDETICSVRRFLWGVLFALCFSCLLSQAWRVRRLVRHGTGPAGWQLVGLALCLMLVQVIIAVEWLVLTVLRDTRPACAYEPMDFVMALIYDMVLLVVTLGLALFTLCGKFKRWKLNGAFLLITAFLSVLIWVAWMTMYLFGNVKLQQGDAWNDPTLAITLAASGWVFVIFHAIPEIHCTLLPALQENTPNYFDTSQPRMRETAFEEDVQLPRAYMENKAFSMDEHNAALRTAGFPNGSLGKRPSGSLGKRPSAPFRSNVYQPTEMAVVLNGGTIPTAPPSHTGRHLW

[11] = AGTR2 (angiotensin II receptor, type 2), read-out: % GPCR activation compared to TPA
[12] = 5-HT6 (5-hydroxytryptamine receptor 6), read-out: % GPCR activation compared to TPA
[13] = GPR142 (G protein-coupled receptor 142), read-out: % GPCR activation compared to TPA
[14] = GPR82 (G Protein-Coupled Receptor 82), read-out: % GPCR activation compared to TPA
[15] = S1PR3 (sphingosine-1-phosphate receptor 3), read-out: % GPCR activation compared to TPA
[16] = GPCR GPR62 (G protein-coupled receptor 62), read-out: % GPCR activation compared to TPA
[17] = OPN3 (opsin 3), read-out: % GPCR activation compared to TPA
[18] = GPCR CYSLTR2 (cysteinyl leukotriene receptor 2), read-out: % GPCR activation compared to TPA
[19] = GPRC5B (G protein-coupled receptor class C group 5 member B), read-out: % GPCR activation compared to TPA
[20] = read-out: % GPCR activation compared to TPA, AGTR2 (angiotensin II receptor, type 2)
[21] = read-out: % GPCR activation compared to TPA, 5-HT6 (5-hydroxytryptamine receptor 6)
[22] = read-out: % GPCR activation compared to TPA, GPR142 (G protein-coupled receptor 142)
[23] = read-out: % GPCR activation compared to TPA, GPR82 (G Protein-Coupled Receptor 82)
[24] = read-out: % GPCR activation compared to TPA, S1PR3 (sphingosine-1-phosphate receptor 3)
[25] = read-out: % GPCR activation compared to TPA, GPCR GPR62 (G protein-coupled receptor 62)
[26] = read-out: % GPCR activation compared to TPA, OPN3 (opsin 3)
[27] = read-out: % GPCR activation compared to TPA, GPCR CYSLTR2 (cysteinyl leukotriene receptor 2)
[28] = read-out: % GPCR activation compared to TPA, GPRC5B (G protein-coupled receptor class C group 5 member B)

Structure (SMILES)	activation at 10 µM (348 GPCRs [1]; [11]) [%]	activation at 100 µM (348 GPCRs [2]; [12]) [%]	activation at 100 µM (348 GPCRs [3]; [13]) [%]	activation at 100 µM (348 GPCRs [4]; [14]) [%]	activation at 10 µM (348 GPCRs [5]; [15]) [%]	% GPCR activation compared to TPA (348 GPCRs [6]; 10µM) [%]	activation at 10 µM (348 GPCRs [7]; [16]) [%]	activation at 100 µM (348 GPCRs [8]; [17]) [%]	activation at 10 µM (348 GPCRs [9]; [18]) [%]	activation at 100 µM (348 GPCRs [10]; [19]) [%]	activation at 10 µM (348 GPCRs [1]; [20]) [%]	activation at 100 µM (348 GPCRs [2]; [21]) [%]	activation at 100 µM (348 GPCRs [3]; [22]) [%]	activation at 100 µM (348 GPCRs [4]; [23]) [%]	activation at 10 µM (348 GPCRs [5]; [24]) [%]	activation at 10 µM (348 GPCRs [7]; [25]) [%]	activation at 100 µM (348 GPCRs [8]; [26]) [%]	activation at 10 µM (348 GPCRs [9]; [27]) [%]	activation at 100 µM (348 GPCRs [10]; [28]) [%]	also measured
N#C[C@@]1(c2ccc3c(N)ncnn23)O[C@H](CO)[C@@H](O)[C@H]1O [GS441524]	0.337	-0.422	0.3	-1.55	-2.2	-4.934	-0.286	-0.281	-1.21	4.38										
CC(C)OC(=O)[C@H](C)N[P@](=O)(OC[C@H]1O[C@@H](n2ccc(=O)[nH]c2=O)[C@](C)(F)[C@@H]1O)Oc1ccccc1 [sofosbuvir]						-0.9389					1.67	-1.12	3.77	0.262	-0.452	1.52	0.266	-0.91	-12.5	
CCC(CC)COC(=O)[C@H](C)N[P@](=O)(OC[C@H]1O[C@@](C#N)(c2ccc3c(N)ncnn23)[C@H](O)[C@@H]1O)Oc1ccccc1 [remdesivir]						-1.376					0.676	0.785	1.22	-0.315	-2.57	0.871	-0.473	-0.408	6.88	
CC(C)C(=O)OC[C@H]1O[C@@H](n2ccc(NO)nc2=O)[C@H](O)[C@@H]1O [molnupiravir]	0.537	-0.864	2.63	-1.43	-2.52	-0.3127	-0.851	-0.438	-0.187	-3.43										
NC(=O)c1nc(F)cnc1O [favipiravir, 6-fluoro-3-hydroxy-2-pyrazinecarboxamide]	0.741	-1.66	-0.257	-0.0995	-2			-0.343		7.41										% GPCR activation compared to TPA (348 GPCRs [6]; 100μM): 2.983%; activation at 100 µM (348 GPCRs [7]; GPCR GPR62 (G protein-coupled receptor 62), 100μM, read-out: % GPCR activation compared to TPA): -1.63%; activation at 100 µM (348 GPCRs [9]; GPCR CYSLTR2 (cysteinyl leukotriene receptor 2), 100μM, read-out: % GPCR activation compared to TPA): -1.33%
